Source: patent US12246091B2, “Method of encapsulating active ingredients in liposomes” (ABNOBA GMBH, priority 2018, dated 2025)

Test: Solubility of the amphiphilic compound in the first liquid perfluoroperhydrophenanthrene (C14F24)
Conditions: for solubility: perfluoroperhydrophenanthrene (C14F24), organic solvent or mixture

Row | solubility | Compound | Solubility in C14F24 (in perfluoroperhydrophenanthrene (C14F24, CAS 306-91-2), bound is the detection limit)
1 | < 10 µM | CCCCCCCCCCCCCCCC(=O)OC[C@H](COP(=O)([O-])OCC[N+](C)(C)C)OC(=O)CCCCCCCCCCCCCCC [DPPC, dipalmitoylphosphatidylcholine] | –
2 | – | CCCCCCCCCCCCCCCCCC(=O)OC[C@H](COP(=O)([O-])OCC[N+](C)(C)C)OC(=O)CCCCCCCCCCCCCCCCC [DSPC, distearoylphosphatidylcholine] | < 10^−5 mol/l
3 | < 10 µM | CC(C)CCC[C@@H](C)[C@H]1CC[C@H]2[C@@H]3CC=C4C[C@@H](O)CC[C@]4(C)[C@H]3CC[C@]12C [cholesterol] | –
